The results in this text go back to patent US12590123B2, “Compounds and methods for treating cancer, viral infections, and allergic conditions” (Washington University, priority 2019, dated 2026).

What all share (assay type): biochemical
In assay [1] the target is T1, activated hepsin (Homo sapiens, UniProt P05981).
T1 construct: purchased R&D Systems 4776-SE-010
The assay can be described thus: Fluorescent kinetic enzyme assay of hepsin activity (Boc-QAR-AMC). The note with it: Table 2; read-out: Hepsin (IC50 nM).
Procedure: After thirty minutes of incubation at room temperature, Boc-QLR-AMC substrate was added (HGFA assay) or Boc-QAR-AMC substrate (matriptase, and hepsin assays). […] From a plot of the mean reaction velocity versus the inhibitor concentration, a non-linear four parameter curve fit was performed using GraphPad Prism (GraphPad Software, San Diego, CA) to determine inhibitor IC50s. The IC50 values were determined from the average of three or more separate experimental determinations. Apparent Ki values were calculated using the Cheng and Prusoff equation (Ki=IC50/(1+[S]/Km).
Inhibitors were pre-incubated with protease followed by the addition of the substrate. Inhibition of substrate proteolysis derived fluorescence was monitored kinetically over a period of one hour.

Assay [2] deals with T2, matriptase (Homo sapiens, UniProt Q9Y5Y6).
T2 construct: purchased R&D Systems 3946-SE-010
T2 sequence (Q9Y5Y6 615-855 limits assumed): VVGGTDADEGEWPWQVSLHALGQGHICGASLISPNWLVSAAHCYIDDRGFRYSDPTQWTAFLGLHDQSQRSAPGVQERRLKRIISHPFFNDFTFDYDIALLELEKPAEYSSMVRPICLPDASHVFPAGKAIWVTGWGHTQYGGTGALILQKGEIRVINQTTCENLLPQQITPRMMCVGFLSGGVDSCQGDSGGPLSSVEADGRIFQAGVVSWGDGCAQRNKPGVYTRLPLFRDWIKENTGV
The assay is described as follows: Fluorescent kinetic enzyme assay of matriptase activity (Boc-QAR-AMC). The note with it: Table 2; read-out: Matriptase (IC50 nM).

Assay [3] concerns the target T3, recombinant HGFA serine protease domain (Homo sapiens, UniProt Q04756).
T3 construct: His6 tag (N); seven amino acid spacer plus TEV cleavage site (N); made in house; host or cells: High 5 insect cells (baculovirus; Sf9 for virus production)
T3 sequence (Q04756 373-655): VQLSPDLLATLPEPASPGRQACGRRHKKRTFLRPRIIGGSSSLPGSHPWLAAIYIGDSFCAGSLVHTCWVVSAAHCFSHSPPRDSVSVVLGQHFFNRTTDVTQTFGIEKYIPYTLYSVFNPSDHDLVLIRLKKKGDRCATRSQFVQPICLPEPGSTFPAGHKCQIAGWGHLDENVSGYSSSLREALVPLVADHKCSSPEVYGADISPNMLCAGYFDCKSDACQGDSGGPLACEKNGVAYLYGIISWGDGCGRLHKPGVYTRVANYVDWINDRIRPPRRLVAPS
The assay is described as follows: Fluorescent kinetic enzyme assay of HGFA activity (Boc-QLR-AMC). The note with it: Table 2; read-out: HGFA (IC50 nM). An excerpt:
The compounds prepared in Examples 1 to 8 were subjected to a series of inhibitions studies. The compounds were first tested in an HGFA enzymatic assay using the fluorogenic substrate Boc-QLR-AMC with a recombinant form of the HGFA serine protease domain.
This PCR product was cloned into the SfoI-HindIII sites of a modified pFastBac HT baculovirus expression vector (Addgene, Cambridge, MA). This vector contains a six amino His tag followed by a seven amino spacer and a seven amino acid TEV cleavage site placed immediately downstream of the honey bee melittin signal peptide. Using a modified Bac to Bac Expression System (Life Technologies, Carlsbad, CA), recombinant HGFA bacmids were obtained by transforming DH10Bac Escherichia coli cells. To obtain HGFA containing baculovirus, purified bacmids were transfected into Sf9 insect cells. After 5 days in culture at 27° C., media was harvested from transfected Sf9 cells. This media was used to prepare baculovirus infected insect cells (BIICs). These BIIICs were used to infect High 5 insect cells. Four days post infection, media was harvested, and recombinant protein was prepared as follows. Media was chilled to 4° C. and spun at 4000×g for 20 minutes (all subsequent steps were performed at 4° C. unless noted). Clarified media was passed first through a Whatman GF/B 1 um (#1821-047, GE Healthcare Life Sciences, Piscataway, NJ) and then a 0.22 μm PES membrane (#99955, TPP Techno Plastic Products AG, Trasadingen, Switzerland) and then concentrated using a Pall Centramate tangential flow system and Centramate T-series Cassette (#OS010T12, Pall Corporation, Port Washington, NY). Concentrated media was then buffer exchanged in two steps, five volumes of 50 mM Na-phosphate, 500 mM NaCl, pH 6.2, followed by five volumes of 50 mM Na-phosphate, 500 mM NaCl, pH 7.5. […] After mixing this slurry for 12 hours, nickel agarose beads were allowed to settle by gravity and then loaded into a column. Beads were washed with buffer (25 mM Na-phosphate, 500 mM NaCl, 25 mM imidazole, pH 8) and the bound protein eluted using (25 mM Na-phosphate, 500 mM NaCl, 250 mM imidazole, pH 8). Using a Amicon Ultra-4 Centrifugal filters (#UFC801008, Merck Millipore, Ltd., Tullagreen, Ireland), peak protein fractions were concentrated and run over a Superdex-200 10/300 GL column (GE Healthcare Life Sciences, Piscataway, NJ) in 10 mM Tris, 200 mM NaCl, 0.2 mM EDTA, pH 8. HGFA containing fractions were pooled, concentrated, made 50% glycerol, and stored at minus 20° C. Protein was quantitated using a modified Lowry protein assay (#500-0006, Bio-Rad Laboratories, Hercules, CA) and specific activity determined using Boc-QLR-AMC substrate.
Fluorescent kinetic enzyme assays of HGFA, matriptase, and hepsin activity: Compounds (0-20 μM final concentration in reaction) were diluted in DMSO (2% DMSO final concentration in reaction) and then mixed with either recombinant HGFA serine protease domain, matriptase (#3946-SE-010, R&D Systems, Minneapolis, Minnesota), or activated hepsin* (#4776-SE-010, R&D Systems, Minneapolis, Minnesota) in black 384 well plates (Corning #3575. Coming, NY). The final assay concentration for HGFA, matriptase, and hepsin, were 6.25 nM, 0.2 nM, and 0.3 nM, respectively in TNC buffer (25 mM Tris, 150 mM NaCl, 5 mM CaCl2, 0.01% Triton X-100, pH 8). After thirty minutes of incubation at room temperature, Boc-QLR-AMC substrate was added (HGFA assay) or Boc-QAR-AMC substrate (matriptase, and hepsin assays). Fluorescence (excitation at 380 nm and emission at 460 nm) was kinetically measured at room temperature over a 1 hour time period using a Biotek Synergy 2 plate reader (Winnoski, VT). From a plot of the mean reaction velocity versus the inhibitor concentration, a non-linear four parameter curve fit was performed using GraphPad Prism (GraphPad Software, San Diego, CA) to determine inhibitor IC50s. The IC50 values were determined from the average of three or more separate experimental determinations. […]

Assay [4] deals with Factor Xa (Homo sapiens, UniProt P00742). The assay is described as follows: Chromogenic kinetic enzyme assay of Factor Xa (S2222). The note with it: Table 2; chromogenic assay; read-out: Factor Xa* (IC50 nM). As for the experimental part:
Using GraphPad Prism (GraphPad Software, San Diego, CA), a four-parameter curve fit was used to determine the inhibitor IC50s from a plot of the mean reaction velocity versus the inhibitor concentration. The IC50 values represent the average of three or more separate experimental determinations. Apparent Ki values were calculated from the IC50 values using the Cheng and Prusoff equation (Ki=IC50/(1+[S]/Km).
Using GraphPad Prism version 6.04 software program, (GraphPad Software, San Diego, CA, graphpad.com), a four parameter curve fit was used to determine the inhibitor IC50s from a plot of the mean reaction velocity versus the inhibitor concentration.
Fluorescent inhibitor and chromogenic proteolytic assays were performed for compounds prepared in Example 11 in general accordance with the procedures described in Example 9.

Molecules are shown by their SMILES.

T1 sequence (P05981 163-417 limits assumed): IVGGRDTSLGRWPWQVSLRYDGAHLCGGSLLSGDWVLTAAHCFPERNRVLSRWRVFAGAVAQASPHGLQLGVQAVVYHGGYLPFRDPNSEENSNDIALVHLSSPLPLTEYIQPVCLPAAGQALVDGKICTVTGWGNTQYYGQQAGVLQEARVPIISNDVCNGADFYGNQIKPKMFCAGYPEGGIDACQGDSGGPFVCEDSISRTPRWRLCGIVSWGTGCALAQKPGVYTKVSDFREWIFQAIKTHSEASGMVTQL
T1 sequence (P05981 1-162 partner limits assumed): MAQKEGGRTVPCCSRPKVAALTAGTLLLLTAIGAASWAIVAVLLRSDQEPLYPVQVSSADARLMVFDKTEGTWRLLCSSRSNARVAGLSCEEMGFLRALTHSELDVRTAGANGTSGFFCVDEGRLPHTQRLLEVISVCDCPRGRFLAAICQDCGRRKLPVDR
Sequence of Factor Xa (P00742 235-488 limits assumed): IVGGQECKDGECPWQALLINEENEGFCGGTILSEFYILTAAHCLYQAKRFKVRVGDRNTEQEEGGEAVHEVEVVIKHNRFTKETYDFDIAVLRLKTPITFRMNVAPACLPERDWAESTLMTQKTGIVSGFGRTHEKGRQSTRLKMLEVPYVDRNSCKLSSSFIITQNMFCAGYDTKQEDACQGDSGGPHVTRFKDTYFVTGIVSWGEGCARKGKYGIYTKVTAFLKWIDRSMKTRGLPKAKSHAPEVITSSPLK
Sequence of Factor Xa (P00742 41-179 partner limits assumed): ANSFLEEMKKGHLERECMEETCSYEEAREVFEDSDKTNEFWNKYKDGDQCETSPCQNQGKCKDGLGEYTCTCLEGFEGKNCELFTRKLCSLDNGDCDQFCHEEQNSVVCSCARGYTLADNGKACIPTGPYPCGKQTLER

The IC50 is the concentration that gives 50% inhibition. Regarding `CC(C)C[C@@H]1NC(=O)[C@@H](N)CCCCNC(=O)C[C@@H](C(=O)N[C@@H](CCCNC(=N)N)C(=O)c2nc3ccccc3s2)NC1=O` [VD1185, (2S,5S,13S)-13-amino-N—((S)-1-(benzo[d]thiazol-2-yl)-5-guanidino-1-oxopentan-2-yl)-2-isobutyl-3,7,14-trioxo-1,4,8-triazacyclotetradecane-5-carboxamide], the IC50 in assay [1] was 92 nM; in assay [2], 1.1 nM; in assay [3] it was above 20000 nM.

Turning to `CC(C)C[C@@H]1NC(=O)[C@@H](N)CCCCNC(=O)CC[C@@H](C(=O)N[C@@H](CCCNC(=N)N)C(=O)c2nc3ccccc3s2)NC1=O` [VD2056, (2S,5S,14S)-14-amino-N—((S)-1-(benzo[d]thiazol-2-yl)-5-guanidino-1-oxopentan-2-yl)-2-isobutyl-3,8,15-trioxo-1,4,9-triazacyclopentadecane-5-carboxamide], the values for the IC50 in assay [1], in assay [2] and in assay [3] were 11.9 nM, 11.5 nM and above 20000 nM, respectively.

Consider `CC(=O)N[C@H]1CCCCNC(=O)CC[C@@H](C(=O)N[C@@H](CCCNC(=N)N)C(=O)c2nc3ccccc3s2)NC(=O)[C@H](CCCNC(=N)N)NC1=O` [VD2109, (2S,5S,14S)-14-acetamido-N—((S)-1-(benzo[d]thiazol-2-yl)-5-guanidino-1-oxopentan-2-yl)-2-(3-guanidinopropyl)-3,8,15-trioxo-1,4,9-triazacyclopentadecane-5-carboxamide], for which the IC50 in assay [1] was 0.08 nM; in assay [2] it was 0.13 nM; in assay [3], 5050 nM.

On to `CC(=O)N[C@H]1CCCCNC(=O)CCC(C(=O)N[C@H](CCCNC(=N)N)C(=O)c2nc3ccccc3s2)NC(=O)[C@H](CCCNC(=N)N)NC1=O` (stereo partly drawn) [VD2109A], for which the 50% inhibitory concentration (IC50) was 0.14 nM in assay [1], 0.19 nM in assay [2] and 4090 nM in assay [3].

In the case of `CC(=O)N[C@H]1CCCCNC(=O)C[C@@H](C(=O)N[C@@H](CCCNC(=N)N)C(=O)c2nc3ccccc3s2)NC(=O)[C@H](CC(C)C)NC1=O` [VD2167, (2S,5S,13S)-13-acetamido-N—((S)-1-(benzo[d]thiazol-2-yl)-5-guanidino-1-oxopentan-2-yl)-2-isobutyl-3,7,14-trioxo-1,4,8-triazacyclotetradecane-5-carboxamide], the IC50 came to 25.1 nM in assay [1], 19.6 nM in assay [2] and 1160 nM in assay [4].

Regarding `CC(=O)N[C@H]1CCC(=O)NCCCC[C@@H](C(=O)N[C@@H](CCCNC(=N)N)C(=O)c2nc3ccccc3s2)NC(=O)[C@H](CC(C)C)NC1=O` [VD2169, (2S,5S,14S)-14-acetamido-N—((S)-1-(benzo[d]thiazol-2-yl)-5-guanidino-1-oxopentan-2-yl)-2-isobutyl-3,11,15-trioxo-1,4,10-triazacyclopentadecane-5-carboxamide], the 50% inhibitory concentration (IC50) in assay [1] worked out at 8.4 nM; in assay [2], 3.1 nM; in assay [4], 1710 nM.

`CC(=O)N[C@H]1Cc2ccc(cc2)OC/C=C\C[C@@H](C(=O)NC(CCCNC(=N)N)C(=O)c2nc3ccccc3s2)NC(=O)[C@H](CC(C)C)NC1=O` (stereo partly drawn) [VD4010A]: the IC50 is 1.14 nM in assay [1], 31.6 nM in assay [2] and 197 nM in assay [3].

For `CC(=O)N[C@H]1Cc2ccc(cc2)OC/C=C\CNC(=O)CC[C@@H](C(=O)N[C@@H](CCCNC(=N)N)C(=O)c2nc3ccccc3s2)NC(=O)[C@H](CC(C)C)NC1=O` [VD4018, (11S,14S,17S,Z)-17-acetamido-N—((S)-1-(benzo[d]thiazol-2-yl)-5-guanidino-1-oxopentan-2-yl)-14-isobutyl-8,13,16-trioxo-2-oxa-7,12,15-triaza-1(1,4)-benzenacyclooctadecaphan-4-ene-11-carboxamide], the IC50 is 6.31 nM in assay [1], 9.84 nM in assay [2] and 1240 nM in assay [4].

Consider `C=CCNC(=O)CC[C@H](NC(=O)[C@H](CC(C)C)NC(=O)[C@H](Cc1ccc(OCC=C)cc1)NC(C)=O)C(=O)N[C@@H](CCCNC(=N)N)C(=O)c1nc2ccccc2s1` [VD4022, (S)-2-((S)-2-((S)-2-acetamido-3-(4-(allyloxy)phenyl)propanamido)-4-methylpentanamido)-N5-allyl-N1-((S)-1-(benzo[d]thiazol-2-yl)-5-guanidino-1-oxopentan-2-yl)pentanediamide], for which the figures for the IC50 in assay [1], in assay [2] and in assay [3] were 10.1 nM, 19.1 nM and 4750 nM, respectively.

On to `CC(=O)N[C@H]1Cc2ccc(cc2)OC/C=C\CNC(=O)C[C@@H](C(=O)N[C@H](CCCNC(=N)N)C(=O)c2nc3ccccc3s2)NC(=O)[C@H](CC(C)C)NC1=O` [VD4054A], for which the IC50 was 14 nM in assay [1], 76.6 nM in assay [2] and above 20000 nM in assay [3].

Consider `CC(=O)N[C@H]1Cc2ccc(cc2)OCCCC[C@@H](C(=O)N[C@H](CCCNC(=N)N)C(=O)c2nc3ccccc3s2)NC(=O)[C@H](Cc2ccccc2)NC1=O` [VD4111A], for which the IC50 in assay [1] came to 12.7 nM; in assay [2] it was 330 nM; in assay [3], 3280 nM.

For `CC(=O)N[C@@H](Cc1ccc(O)c([N+](=O)[O-])c1)C(=O)N[C@@H](CC(C)C)C(=O)N[C@@H](Cc1ccc(Br)cc1)C(=O)N[C@H](CCCNC(=N)N)C(=O)c1nc2ccccc2s1` [VD4112A], the figures for the IC50 in assay [1], in assay [2] and in assay [3] were 23.9 nM, 111 nM and 3510 nM, respectively.

In the case of `CC(=O)N[C@@H](Cc1ccc(O)c([N+](=O)[O-])c1)C(=O)N[C@@H](CC(C)C)C(=O)N[C@@H](Cc1ccc(Br)cc1)C(=O)N[C@@H](CCCNC(=N)N)C(=O)c1nc2ccccc2s1` [VD4112], the IC50 is 1.15 nM in assay [1], 9.49 nM in assay [2] and 14000 nM in assay [3].
